This is an account of results in ChEMBL document CHEMBL1139653, “Synthesis and biological evaluation of novel hexahydro-pyrido[3',2':4,5]pyrrolo[1,2-a]pyrazines as potent and selective 5-HT(2C) receptor agonists” (Bioorg Med Chem Lett, 2006).

The structures appear in SMILES notation.

Usually Ki stands for a dissociation constant, usually derived from enzyme kinetics or from competition with a known ligand. A word on the inhibition: it is how much of the control response was suppressed. A lower inhibition goes with a response near the control. One may read the IC50 as the concentration that gives 50% inhibition. The low end stands for greater potency, the high end for weaker potency. Broadly, the EC50 is the concentration at which the effect is half-maximal. Usually Emax stands for the greatest response seen or fitted, relative to the assay's reference. One may read the pKb as the negative decadic logarithm of the Kb, by convention in mol/L.

The target of data set [1] is T1, 5-hydroxytryptamine receptor 2C (Homo sapiens) (UniProt P28335).
T1 sequence (whole entry): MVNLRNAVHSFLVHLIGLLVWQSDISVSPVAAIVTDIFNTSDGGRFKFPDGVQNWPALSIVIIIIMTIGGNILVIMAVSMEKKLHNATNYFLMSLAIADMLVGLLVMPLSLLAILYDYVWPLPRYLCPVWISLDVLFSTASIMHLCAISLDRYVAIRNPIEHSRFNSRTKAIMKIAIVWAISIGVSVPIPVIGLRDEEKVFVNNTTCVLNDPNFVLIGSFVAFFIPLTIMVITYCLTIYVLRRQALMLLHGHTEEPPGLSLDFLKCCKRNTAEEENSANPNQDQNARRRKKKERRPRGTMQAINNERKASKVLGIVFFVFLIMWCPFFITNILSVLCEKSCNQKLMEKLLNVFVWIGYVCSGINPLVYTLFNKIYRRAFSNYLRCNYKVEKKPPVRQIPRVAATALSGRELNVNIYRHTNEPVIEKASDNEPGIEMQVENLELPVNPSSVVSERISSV
The data set is described as follows: Efficacy against human recombinant 5HT2C receptor expressed in CHO cells at 1 uM in relative to 10 uM 5HT by FLIPR. Format: functional, cell-based.

Data set [2] concerns the target T2, 5-hydroxytryptamine receptor 2A (Homo sapiens, UniProt P28223). The data set is described as follows: Displacement of [125I]DOI from human recombinant 5HT2A receptor expressed in CHO cells. Type of data set: cell-based. (Loss of bound radioactivity is the signal in a displacement assay; it reports binding, not function.)
For data set [3], the target named is T3, 5-hydroxytryptamine receptor 2B (Homo sapiens, UniProt P41595). The data set is described as follows: Displacement of [3H]5HT from human recombinant 5HT2B receptor expressed in CHO cells. Type of data set: cell-based.
The target in data set [4] is T4, 5-hydroxytryptamine receptor 2C (Homo sapiens, UniProt P28335).
T4 sequence (P28335 whole entry): T1 sequence (whole entry)
The data set is described as follows: Displacement of [3H]5HT from human recombinant 5HT2C receptor expressed in CHO cells. Format: cell-based.

In data set [5] the target is hERG (KCNH2) (Homo sapiens, UniProt Q12809). The data set is described as follows: Inhibition of hERG potassium channel expressed in CHO cells by whole cell patch clamp method at 10 uM. Format: toxicity, cell-based. The following applies: CHO cells expressing hERG.
Data set [6] has as its target Voltage-gated inwardly rectifying potassium channel KCNH2 (Homo sapiens, UniProt Q12809). The data set is described as follows: Inhibition of hERG potassium channel expressed in CHO cells by whole cell patch clamp method. Format: toxicity, cell-based.
Data set [7] deals with T3, 5-hydroxytryptamine receptor 2B. The data set is described as follows: Efficacy against human recombinant 5HT2B receptor induced intracellular calcium mobilization in CHO cells by FLIPR. Type of data set: functional, cell-based. For orientation: Calcium flux is commonly read through the fluorescence of an indicator in the cells.
Data set [8] has as its target T4, 5-hydroxytryptamine receptor 2C. The data set is described as follows: Efficacy against human recombinant 5HT2C receptor induced intracellular calcium mobilization in CHO cells by FLIPR.
In data set [9] the target is 5-hydroxytryptamine receptor 1D (Homo sapiens, UniProt P28221). The data set is described as follows: Binding affinity to 5HT1D receptor.
The target of data set [10] is 5-hydroxytryptamine receptor 1A (Homo sapiens, UniProt P08908). The data set is described as follows: Binding affinity to 5HT1A receptor.
Data set [11] concerns the target 5-hydroxytryptamine receptor 1B (Homo sapiens, UniProt P28222). The data set is described as follows: Binding affinity to 5HT1B receptor.
Data set [12] addresses 5-hydroxytryptamine receptor 5A (Homo sapiens, UniProt P47898). The data set is described as follows: Binding affinity to 5HT5A receptor.
Data set [13] addresses 5-hydroxytryptamine receptor 6 (Homo sapiens, UniProt P50406). The data set is described as follows: Binding affinity to 5HT6 receptor.
Data set [14] concerns the target Adrenergic receptor alpha-1 (Homo sapiens, UniProt P35348+P25100+P35368). The data set is described as follows: Binding affinity to alpha-1 adrenergic receptor. Format: protein assay.
For data set [15], the target named is D(4) dopamine receptor (Homo sapiens, UniProt P21917). The data set is described as follows: Binding affinity to D4 receptor.
For data set [16], the target named is Serotonin 3 (5-HT3) receptor. The data set is described as follows: Binding affinity to 5HT3 receptor. Format: protein-complex assay, Homo sapiens.
Data set [17] concerns the target 5-hydroxytryptamine receptor 7 (Homo sapiens, UniProt P34969). The data set is described as follows: Binding affinity to 5HT7 receptor.
In data set [18] the target is Beta-1 adrenergic receptor (Homo sapiens, UniProt P08588). The data set is described as follows: Binding affinity to beta-1 adrenergic receptor.
The target in data set [19] is Mu-type opioid receptor (Homo sapiens, UniProt P35372). The data set is described as follows: Binding affinity to mu type opioid receptor.
In data set [20] the target is Sodium-dependent serotonin transporter (Homo sapiens, UniProt P31645). The data set is described as follows: Binding affinity to 5HT transporter.
Data set [21] concerns the target Sodium-dependent noradrenaline transporter (Homo sapiens, UniProt P23975). The data set is described as follows: Binding affinity to NA transporter.
Data set [22] deals with Sodium-dependent dopamine transporter (Homo sapiens, UniProt Q01959). The data set is described as follows: Binding affinity to DA transporter.
Data set [23] is described as follows: Binding affinity to sodium channel.
Data set [24] relates to Rattus norvegicus. The data set is described as follows: Reduction of food intake in po dosed Hooded Lister rat. The settings on record: read-out: MED. Format: functional.
Data set [25] relates to Phospholipidosis. The data set is described as follows: In vitro phospholipidosis in fibroblasts at 20uM. Type of data set: ADME.
In data set [26] the target is T2, 5-hydroxytryptamine receptor 2A.
Description: Binding affinity to human recombinant 5HT2A receptor
The test system of data set [27] is Phospholipidosis. The data set is described as follows: In vitro phospholipidosis in fibroblasts at 7.5uM. The settings on record: fibroblast. Format: ADME, cell-based.

T2 sequence (P28223 whole entry): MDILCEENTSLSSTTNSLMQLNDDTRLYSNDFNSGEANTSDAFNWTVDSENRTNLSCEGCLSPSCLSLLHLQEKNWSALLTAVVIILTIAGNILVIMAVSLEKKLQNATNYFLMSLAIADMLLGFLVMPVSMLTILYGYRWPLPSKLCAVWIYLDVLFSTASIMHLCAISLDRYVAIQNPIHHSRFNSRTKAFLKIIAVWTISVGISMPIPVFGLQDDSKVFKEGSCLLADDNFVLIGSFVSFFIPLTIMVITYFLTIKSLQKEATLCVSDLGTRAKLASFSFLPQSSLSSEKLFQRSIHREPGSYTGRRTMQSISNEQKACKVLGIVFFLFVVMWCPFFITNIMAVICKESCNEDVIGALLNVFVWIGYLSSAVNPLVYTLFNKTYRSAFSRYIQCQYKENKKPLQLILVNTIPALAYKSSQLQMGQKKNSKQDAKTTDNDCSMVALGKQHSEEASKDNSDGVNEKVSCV
T3 sequence (P41595 whole entry): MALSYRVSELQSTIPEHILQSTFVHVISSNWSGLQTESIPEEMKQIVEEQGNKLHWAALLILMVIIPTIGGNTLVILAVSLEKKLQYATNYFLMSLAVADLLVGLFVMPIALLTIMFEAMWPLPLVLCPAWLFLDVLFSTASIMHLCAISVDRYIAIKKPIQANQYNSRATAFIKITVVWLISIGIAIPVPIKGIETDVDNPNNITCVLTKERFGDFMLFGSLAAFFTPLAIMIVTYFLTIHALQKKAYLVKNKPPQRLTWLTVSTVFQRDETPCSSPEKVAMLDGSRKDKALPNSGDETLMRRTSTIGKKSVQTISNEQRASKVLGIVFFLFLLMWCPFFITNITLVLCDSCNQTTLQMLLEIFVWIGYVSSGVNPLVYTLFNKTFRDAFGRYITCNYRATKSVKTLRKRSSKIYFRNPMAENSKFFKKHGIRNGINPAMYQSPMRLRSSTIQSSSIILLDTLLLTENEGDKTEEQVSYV
Sequence of Voltage-gated inwardly rectifying potassium channel KCNH2 (Q12809 whole entry): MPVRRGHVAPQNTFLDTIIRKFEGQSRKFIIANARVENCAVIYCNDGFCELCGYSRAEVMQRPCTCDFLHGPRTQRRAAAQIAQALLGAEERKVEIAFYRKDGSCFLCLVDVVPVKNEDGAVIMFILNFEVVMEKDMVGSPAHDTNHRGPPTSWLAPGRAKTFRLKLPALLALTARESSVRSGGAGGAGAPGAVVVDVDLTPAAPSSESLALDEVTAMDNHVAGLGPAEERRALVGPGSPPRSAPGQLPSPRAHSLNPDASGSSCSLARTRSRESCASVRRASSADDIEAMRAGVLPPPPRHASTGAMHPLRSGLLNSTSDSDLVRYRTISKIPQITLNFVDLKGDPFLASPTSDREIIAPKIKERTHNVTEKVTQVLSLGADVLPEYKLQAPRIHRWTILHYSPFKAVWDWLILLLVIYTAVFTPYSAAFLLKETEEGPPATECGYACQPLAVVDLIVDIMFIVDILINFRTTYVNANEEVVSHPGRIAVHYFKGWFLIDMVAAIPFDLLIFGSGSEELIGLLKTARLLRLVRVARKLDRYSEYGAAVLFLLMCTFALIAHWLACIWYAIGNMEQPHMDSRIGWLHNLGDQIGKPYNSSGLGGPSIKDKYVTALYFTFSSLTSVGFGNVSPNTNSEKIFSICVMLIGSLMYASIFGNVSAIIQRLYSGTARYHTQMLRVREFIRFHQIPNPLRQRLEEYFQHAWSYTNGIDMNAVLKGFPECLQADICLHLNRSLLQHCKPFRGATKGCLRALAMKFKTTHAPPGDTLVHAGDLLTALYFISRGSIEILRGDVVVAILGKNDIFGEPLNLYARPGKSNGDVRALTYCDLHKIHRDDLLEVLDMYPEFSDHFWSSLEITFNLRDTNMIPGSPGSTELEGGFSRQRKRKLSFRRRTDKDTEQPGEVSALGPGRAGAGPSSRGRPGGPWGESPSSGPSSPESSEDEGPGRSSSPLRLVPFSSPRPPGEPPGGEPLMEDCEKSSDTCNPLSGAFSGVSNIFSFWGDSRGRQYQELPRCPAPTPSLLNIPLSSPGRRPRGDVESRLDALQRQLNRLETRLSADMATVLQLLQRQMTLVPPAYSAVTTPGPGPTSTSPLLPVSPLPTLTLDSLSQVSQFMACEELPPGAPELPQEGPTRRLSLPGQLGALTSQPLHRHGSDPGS
Sequence of 5-hydroxytryptamine receptor 5A (P47898 whole entry): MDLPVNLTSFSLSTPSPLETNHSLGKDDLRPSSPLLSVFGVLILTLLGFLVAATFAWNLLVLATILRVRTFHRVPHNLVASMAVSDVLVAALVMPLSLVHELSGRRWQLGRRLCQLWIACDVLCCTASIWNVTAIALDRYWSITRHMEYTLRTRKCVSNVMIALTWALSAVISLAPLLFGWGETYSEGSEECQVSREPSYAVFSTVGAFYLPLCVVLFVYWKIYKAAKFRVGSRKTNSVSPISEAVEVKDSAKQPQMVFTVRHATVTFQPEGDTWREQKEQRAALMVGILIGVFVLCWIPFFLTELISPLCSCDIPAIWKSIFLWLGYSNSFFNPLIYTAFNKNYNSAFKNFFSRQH
Sequence of Sodium-dependent serotonin transporter (P31645 whole entry): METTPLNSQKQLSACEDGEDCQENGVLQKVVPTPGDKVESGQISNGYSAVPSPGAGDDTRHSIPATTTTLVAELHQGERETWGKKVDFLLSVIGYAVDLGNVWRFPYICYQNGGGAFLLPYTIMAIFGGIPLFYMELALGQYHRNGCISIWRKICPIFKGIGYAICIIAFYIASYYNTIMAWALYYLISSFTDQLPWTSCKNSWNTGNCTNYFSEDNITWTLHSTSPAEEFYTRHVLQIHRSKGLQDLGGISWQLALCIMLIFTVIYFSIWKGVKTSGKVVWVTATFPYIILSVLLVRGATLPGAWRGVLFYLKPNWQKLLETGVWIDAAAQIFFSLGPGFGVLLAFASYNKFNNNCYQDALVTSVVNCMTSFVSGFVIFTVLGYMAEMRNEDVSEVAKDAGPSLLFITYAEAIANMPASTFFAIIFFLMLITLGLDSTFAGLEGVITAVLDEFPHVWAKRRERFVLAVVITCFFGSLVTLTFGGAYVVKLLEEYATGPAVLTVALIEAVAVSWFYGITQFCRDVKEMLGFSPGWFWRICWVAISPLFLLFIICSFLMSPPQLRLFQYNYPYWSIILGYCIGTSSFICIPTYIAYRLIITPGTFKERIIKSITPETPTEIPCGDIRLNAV
Sequence of Sodium-dependent noradrenaline transporter (P23975 whole entry): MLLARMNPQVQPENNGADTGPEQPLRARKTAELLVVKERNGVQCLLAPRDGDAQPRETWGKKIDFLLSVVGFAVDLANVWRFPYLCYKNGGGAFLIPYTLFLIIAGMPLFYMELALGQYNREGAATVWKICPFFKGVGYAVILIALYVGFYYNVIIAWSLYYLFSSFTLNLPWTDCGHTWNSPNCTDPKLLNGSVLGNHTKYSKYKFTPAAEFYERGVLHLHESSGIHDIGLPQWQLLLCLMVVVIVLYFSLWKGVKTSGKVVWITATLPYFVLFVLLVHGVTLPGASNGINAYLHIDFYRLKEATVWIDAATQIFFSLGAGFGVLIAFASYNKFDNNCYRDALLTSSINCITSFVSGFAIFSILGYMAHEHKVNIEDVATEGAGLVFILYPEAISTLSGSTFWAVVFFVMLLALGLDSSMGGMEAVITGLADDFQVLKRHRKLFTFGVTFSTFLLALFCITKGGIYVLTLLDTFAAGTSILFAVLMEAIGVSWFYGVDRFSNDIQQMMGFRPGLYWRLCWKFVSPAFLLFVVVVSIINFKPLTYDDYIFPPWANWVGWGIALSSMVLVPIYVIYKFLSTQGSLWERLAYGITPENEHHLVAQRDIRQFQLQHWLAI
Sequence of Mu-type opioid receptor (P35372 whole entry): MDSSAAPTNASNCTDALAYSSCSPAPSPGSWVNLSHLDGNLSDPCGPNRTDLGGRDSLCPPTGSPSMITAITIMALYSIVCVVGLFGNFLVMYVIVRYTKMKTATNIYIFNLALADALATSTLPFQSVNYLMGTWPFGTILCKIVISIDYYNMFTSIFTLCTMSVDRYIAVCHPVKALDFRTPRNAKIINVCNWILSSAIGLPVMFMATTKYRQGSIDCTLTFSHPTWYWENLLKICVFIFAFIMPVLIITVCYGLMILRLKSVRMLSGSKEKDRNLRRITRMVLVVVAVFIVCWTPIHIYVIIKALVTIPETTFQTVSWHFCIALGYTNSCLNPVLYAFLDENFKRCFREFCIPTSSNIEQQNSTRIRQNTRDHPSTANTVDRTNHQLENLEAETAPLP
Sequence of 5-hydroxytryptamine receptor 1A (P08908 whole entry): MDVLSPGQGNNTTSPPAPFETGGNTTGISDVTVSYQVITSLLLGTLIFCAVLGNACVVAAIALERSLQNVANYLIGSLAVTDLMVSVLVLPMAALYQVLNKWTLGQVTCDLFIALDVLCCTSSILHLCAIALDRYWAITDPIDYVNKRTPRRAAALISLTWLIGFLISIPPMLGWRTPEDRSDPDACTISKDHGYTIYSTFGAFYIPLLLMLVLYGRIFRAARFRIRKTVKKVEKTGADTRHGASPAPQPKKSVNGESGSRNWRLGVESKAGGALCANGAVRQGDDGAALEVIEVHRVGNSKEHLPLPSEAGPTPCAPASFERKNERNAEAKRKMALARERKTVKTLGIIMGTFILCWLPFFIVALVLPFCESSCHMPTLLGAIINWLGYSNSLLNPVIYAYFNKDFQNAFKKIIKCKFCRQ
Sequence of 5-hydroxytryptamine receptor 6 (P50406 whole entry): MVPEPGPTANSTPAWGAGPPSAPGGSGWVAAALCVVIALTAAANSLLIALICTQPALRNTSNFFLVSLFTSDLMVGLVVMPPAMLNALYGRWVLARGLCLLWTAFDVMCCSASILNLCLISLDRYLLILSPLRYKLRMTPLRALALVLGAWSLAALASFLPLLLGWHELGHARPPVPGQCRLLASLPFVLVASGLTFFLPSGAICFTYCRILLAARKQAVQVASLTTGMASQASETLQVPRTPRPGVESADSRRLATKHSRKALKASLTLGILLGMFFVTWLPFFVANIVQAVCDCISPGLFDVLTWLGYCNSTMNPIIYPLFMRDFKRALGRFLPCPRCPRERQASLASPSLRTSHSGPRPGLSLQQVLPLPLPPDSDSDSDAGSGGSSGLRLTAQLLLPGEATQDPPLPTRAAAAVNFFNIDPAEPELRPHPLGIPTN

For `C[C@@H]1CNC[C@@H]2Cc3ccc(Cl)nc3N21`, the Efficacy in [1] came to 81%. Further, the Ki in data set [2] amounted to 54 nM; in data set [3], 217 nM; in [4], 52 nM.
The corresponding values for `COCc1ccc2c(n1)N1[C@@H](CNC[C@H]1C)C2` are 97%, 565 nM, 379 nM and 16 nM.
Take `CC(=O)Nc1ccc2c(n1)N1[C@@H](CNC[C@H]1C)C2`: in data set [1], the Efficacy turned out to be 0%.
Turning to `CCO[C@@H](C)c1ccc2c(n1)N1[C@@H](CNC[C@H]1C)C2`, the Efficacy in data set [1] came to 83%. In addition, the Ki in data set [2] was 65 nM; in [3] it was 295 nM; in data set [4] it was 2.3 nM. Moreover, testing at 10 µM in data set [5] gave an inhibition of 20%.
For the compound `CCO[C@H](C)c1ccc2c(n1)N1[C@@H](CNC[C@H]1C)C2`, the Efficacy in data set [1] was determined as 86%. Moreover, the Ki amounted to 2380 nM in data set [2], 1310 nM in data set [3] and 93 nM in [4].
For `C[C@@H]1CNC[C@H]2Cc3ccc(Cl)nc3N21`, the Efficacy in data set [1] was 98%. Besides, the Ki was 42 nM in [2], 48 nM in data set [3] and 1.6 nM in [4]. In addition, in data set [6], inhibition was half-maximal at 40000 nM (IC50).
Consider `C[C@H](O)c1ccc2c(n1)N1[C@@H](CNC[C@H]1C)C2`, for which, in data set [1], the Efficacy was 101%. The results for the Ki in [2], in data set [3] and in data set [4] were 392 nM, 835 nM and 39 nM, respectively.
With `C[C@@H]1CNC[C@H]2Cc3ccc(C#N)nc3N21`, the Efficacy in [1] came to 85%. Also, the Ki in data set [2] was found to be 2550 nM; in data set [3] it was 1820 nM; in [4], 60 nM.
Regarding `C[C@@H]1CNC[C@H]2Cc3ccc(COCC4CC4)nc3N21`, the Efficacy in data set [1] was 87%. Also, the Ki in data set [2] is 74 nM; in data set [3], 174 nM; in data set [4], 3.6 nM; in data set [9] it was above 360 nM; in data set [10] it was above 720 nM; in data set [11], above 720 nM. Also, the Ki in [12] was above 720 nM; in data set [13] it was above 720 nM; in data set [14], above 1000 nM; in [15] it was above 720 nM; in data set [16], above 1000 nM; in [17], above 1000 nM. For the same compound, the Ki in data set [18], in data set [19], in data set [20], in data set [21], in data set [22] and in data set [23] was above 1000 nM throughout. Also, the 50% effective concentration (EC50) in data set [7] was found to be 23 nM; in data set [8], 15 nM. For the same compound, in data set [7], the Emax is 31%. The minimal effective dose in data set [24] turned out to be 10 mg/kg. This compound also showed an IC50 in data set [6] above 30000 nM. Also, the Phospholipidosis entry in [25] is listed as “Not Active”. In data set [26], this compound showed a negative logarithm of the Kb (pKb) of 6.7.
In the case of `C[C@@H]1CNC[C@H]2Cc3ccc(CO)nc3N21`, the Efficacy in data set [1] was 88%. Besides, the results for the Ki in data set [2], in data set [3] and in data set [4] were 942 nM, 1140 nM and 54 nM, respectively.
The corresponding values for `C[C@@H]1CNC[C@H]2Cc3ccc(C(F)(F)F)nc3N21` are 96%, 43 nM, 68 nM and 14 nM.
Regarding `Cc1ccc2c(n1)N1[C@@H](CNC[C@H]1C)C2`, in data set [1], the Efficacy was determined as 101%. Further, the Ki in data set [2] turned out to be 136 nM; in data set [3], 77 nM; in data set [4], 2.7 nM. In [6], the IC50 came to 21000 nM. For the same compound, in [25], the Phospholipidosis result is “Not Active”.
`C[C@@H]1CNC[C@@H]2Cc3ccc(Br)nc3N21`: the Efficacy in [1] is 87%. In addition, the Ki stood at 58 nM in [2], 166 nM in data set [3] and 21 nM in data set [4].
Regarding `Cc1c(Cl)ccc2c1N1[C@H](CNC[C@H]1C)C2`, the results for the Ki in data set [2] and in data set [3] were 19 nM and 40 nM, respectively. The same compound came in with a Phospholipidosis in data set [27] of 7.5 µM.
Regarding `C[C@@H]1CNC[C@H]2Cc3ccc(Br)nc3N21`, in [1], the Efficacy turned out to be 97%. Further, the Ki in data set [2] was 53 nM; in data set [3], 81 nM; in data set [4], 0.8 nM.
The corresponding values for `COc1ccc2c(n1)N1[C@@H](CNC[C@H]1C)C2` are 77%, 511 nM, 440 nM and 104 nM.
In the case of `Clc1ccc2c(n1)N1CCNCC1C2` (centres undefined), the Ki in [2] stood at 217 nM; in data set [3], 221 nM; in [4], 131 nM.
